Source: patent US9062124B2, “GIP-based mixed agonists for treatment of metabolic disorders and obesity” (priority 2008, dated 2015)
Bridges are numbered along the chain shown (N, C = ends). Where no end group is shown, it is not given here. [ ]: non-standard residue; d: D form. PEG 40 kDa = PEG (40 kDa) covalently attached to Cys; C14 acyl = 14 carbon fatty acyl group; Aib = CC(C)(N)C(=O)O

Tests used:
GLP-1 receptor = target: T1, GLP-1 receptor (Homo sapiens, UniProt P43220); assay: cAMP synthesis functional assay (firefly luciferase reporter in HEK293 cells), GLP-1 receptor; format: cell-based
T1 construct: expressed in transfected cells; host or cells: HEK293

glucagon receptor = target: T2, glucagon receptor (Homo sapiens, UniProt P47871); assay: cAMP synthesis functional assay (firefly luciferase reporter in HEK293 cells), glucagon receptor; format: cell-based; conditions: relative to the standard (Std.) EC50 of the same run
T2 construct: expressed in transfected cells; host or cells: HEK293

[1] = tested on: glucagon receptor, GLP-1 receptor or GIP receptor; assay: Agonist profile across receptors assigned from the cAMP reporter assay data; format: cell-based; conditions: assigned from the in vitro EC50 data of Tables 1-4
[2] = Blood glucose levels of mice after peptide injection
GIP receptor = target: T3, GIP receptor (Homo sapiens, UniProt P48546); assay: cAMP synthesis functional assay (firefly luciferase reporter in HEK293 cells), GIP receptor; format: cell-based; conditions: relative to the standard (Std.) EC50 of the same run
T3 construct: expressed in transfected cells; host or cells: HEK293
T3 sequence (P48546 22-466): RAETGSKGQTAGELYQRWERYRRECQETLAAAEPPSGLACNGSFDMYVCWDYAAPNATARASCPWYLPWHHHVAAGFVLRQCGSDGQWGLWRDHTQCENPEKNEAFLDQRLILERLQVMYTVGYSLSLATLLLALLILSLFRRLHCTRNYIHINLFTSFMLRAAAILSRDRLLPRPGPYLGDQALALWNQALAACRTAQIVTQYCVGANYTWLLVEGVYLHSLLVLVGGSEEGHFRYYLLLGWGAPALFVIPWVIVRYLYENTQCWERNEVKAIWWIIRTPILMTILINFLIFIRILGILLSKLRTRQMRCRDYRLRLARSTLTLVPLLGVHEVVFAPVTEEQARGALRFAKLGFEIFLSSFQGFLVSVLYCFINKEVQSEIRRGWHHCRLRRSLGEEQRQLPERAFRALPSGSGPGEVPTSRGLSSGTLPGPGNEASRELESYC

[3] = Body weight of mice after peptide injection; conditions: for reduction of body weight: subcutaneous QW, 70 or 210 nmol/kg/week; for % change in body weight: Example 26, intraperitoneal, 3 or 10 nmol/kg/week, up to Day 7; for total change in body weight: subcutaneous, Day 7
[4] = Food intake of mice after peptide injection; format: in vivo; conditions: for total food intake: versus vehicle control
[5] = Glucose tolerance test (1-hour and 24-hour GTT) in DIO mice; format: in vivo; conditions: Example 26; for potency in GTT compared with GLP-1 agonist control peptide: 1 or 3 nmol/kg/week versus control at 10 nmol/kg/week; for blood glucose levels in 1-hour and 24-hour GTT: DIO mice, intraperitoneal, 1, 3 or 10 nmol/kg/week, versus vehicle control
Method: A 1-hour glucose tolerance test (GTT) was performed on the mice by intraperitoneally injecting a 25% (w/v) glucose saline solution into the mice one hour after injection with one of the peptides or vehicle control. The glucose saline solution was administered to the mice at a dose of 1.5 g per kg of mouse body weight. Blood glucose levels were measured at the time of injection of peptide or vehicle control (−60 min), at the time of glucose saline solution injection (0 min), or at 15, 30, 60, or 120 min post injection with the glucose saline solution.
A 24-hour GTT also was performed on the mice in the same manner as the 1-hour GTT, except that the glucose saline solution was administered to the mice 24 hours after injection with the peptide or vehicle control. The results of the 24-hour GTT are showri in FIG. 8.

[6] = Example 20, DIO mice, subcutaneous QW, 70 or 210 nmol/kg/week
[7] = Example 28, DIO mice, subcutaneous, 10 nmol/kg, Day 0 versus Day 7
[8] = Example 34, DIO mice, higher dose (35 nmol/kg), Day 0 versus Day 7
[9] = Example 34, DIO mice, 10 or 35 nmol/kg

T1 sequence (P43220 24-463, species assumed): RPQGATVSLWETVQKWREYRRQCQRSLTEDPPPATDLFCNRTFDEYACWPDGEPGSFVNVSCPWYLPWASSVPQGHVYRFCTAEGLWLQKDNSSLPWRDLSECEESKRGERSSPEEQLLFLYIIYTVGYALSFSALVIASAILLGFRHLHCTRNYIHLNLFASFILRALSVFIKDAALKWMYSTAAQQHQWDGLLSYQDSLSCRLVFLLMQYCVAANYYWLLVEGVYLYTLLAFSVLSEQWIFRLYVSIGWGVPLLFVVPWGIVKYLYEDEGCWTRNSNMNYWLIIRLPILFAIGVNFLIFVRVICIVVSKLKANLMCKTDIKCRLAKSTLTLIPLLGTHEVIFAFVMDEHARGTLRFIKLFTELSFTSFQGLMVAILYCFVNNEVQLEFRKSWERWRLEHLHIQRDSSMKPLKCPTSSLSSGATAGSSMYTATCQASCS
T2 sequence (P47871 26-477): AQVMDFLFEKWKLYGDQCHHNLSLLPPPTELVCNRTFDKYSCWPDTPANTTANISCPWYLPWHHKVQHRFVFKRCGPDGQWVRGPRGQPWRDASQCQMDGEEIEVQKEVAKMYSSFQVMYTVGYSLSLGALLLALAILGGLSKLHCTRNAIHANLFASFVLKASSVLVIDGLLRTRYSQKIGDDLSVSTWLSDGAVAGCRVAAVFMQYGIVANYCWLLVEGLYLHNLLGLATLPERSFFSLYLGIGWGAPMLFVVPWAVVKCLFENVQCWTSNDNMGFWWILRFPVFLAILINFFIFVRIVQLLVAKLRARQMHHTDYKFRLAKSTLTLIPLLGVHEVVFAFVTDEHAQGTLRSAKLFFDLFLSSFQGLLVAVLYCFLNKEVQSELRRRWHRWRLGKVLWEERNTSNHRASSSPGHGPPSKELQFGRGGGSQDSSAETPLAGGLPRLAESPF

Compound: CCCCCCCCCCCCCC(=O)NCCCC[C@H](NC(=O)[C@H](CO)NC(=O)[C@@H]1CCCN1C(=O)[C@@H]1CCCN1C(=O)[C@@H]1CCCN1C(=O)[C@H](C)NC(=O)CNC(=O)[C@H](CO)NC(=O)[C@H](CO)NC(=O)[C@@H]1CCCN1C(=O)CNC(=O)CNC(=O)[C@H](C)NC(=O)[C@H](CC(C)C)NC(=O)[C@H](CC(C)C)NC(=O)[C@H](Cc1c[nH]c2ccccc12)NC(=O)[C@H](CC(N)=O)NC(=O)[C@@H](NC(=O)[C@H](Cc1ccccc1)NC(=O)[C@H](CCC(=O)O)NC(=O)C(C)(C)NC(=O)[C@H](C)NC(=O)[C@H](C)NC(=O)[C@H](CCC(N)=O)NC(=O)[C@H](CCCCN)NC(=O)[C@H](CC(=O)O)NC(=O)[C@H](CC(C)C)NC(=O)[C@H](Cc1ccc(O)cc1)NC(=O)[C@@H](NC(=O)[C@H](CO)NC(=O)[C@H](Cc1ccc(O)cc1)NC(=O)[C@H](CC(=O)O)NC(=O)[C@H](CO)NC(=O)[C@@H](NC(=O)[C@H](Cc1ccccc1)NC(=O)[C@@H](NC(=O)CNC(=O)[C@H](CCC(=O)O)NC(=O)C(C)(C)NC(=O)[C@@H](N)Cc1ccc(O)cc1)[C@@H](C)O)[C@@H](C)O)[C@@H](C)CC)C(C)C)C(N)=O [mt-260]
- EC50 (GLP-1 receptor; GLP-1 Receptor EC50, cAMP luciferase reporter assay as in Example 16): 6.8 pM
- GLP-1 Receptor relative activity (GLP-1 receptor; relative to the standard (Std.) EC50 of the same run): 257.35%
- Glucagon Receptor relative activity (glucagon receptor): 6.64%
- receptor activity profile (glucagon / GLP-1 / GIP agonism) [1]: exhibited activity at the GIP, GLP-1, and glucagon receptors
- decrease in blood glucose levels ([2]; Example 29, mice, QD for 7 days, 25 nmol/kg): ~50%
- GIP Receptor relative activity (GIP receptor): 583.33%

Compound: Pro3 C24 GIP NH2 (1-42) 40K PEG: amino acids 1-42 of GIP with Pro at position 3, Cys at position 24 attached to 40K PEG, C-terminal amide (YAPGTFISDYSIAMDKIHQQDFVC(PEG 40 kDa)WLLAQKGKKNDWKHNITQ-NH2) [reference compound]
- reduction of blood glucose levels [2, 6]: neither the GIP antagonist nor the GIP agonist peptide were effective
- reduction of body weight ([3]; Example 20, DIO mice, compared with pegylated glucagon/GLP-1 co-agonist): neither the GIP antagonist nor the GIP agonist peptide were effective
- reduction of cumulative food intake [4, 6]: neither the GIP antagonist nor the GIP agonist peptide were effective

Compound: mt-178: pegylated, cyclic, lactam-containing GIP-active glucagon analog; GLP-1/GIP co-agonist peptide (Y[Aib]EGTFTSDYSIYLDEQAAKEFVNWLLAGGPSSGAPPPSC(PEG 40 kDa)-NH2; lactam 16-20)
- receptor activity profile (glucagon / GLP-1 / GIP agonism) [1]: exemplary GLP-1/GIP co-agonist peptides
- blood glucose levels [2, 7]: decreased
- reduction of body weight ([3]; Example 22, DIO mice): a little more effective at reducing body weight in the mice as Chimera 2 AIB2, but not as effective as Chimera 2 AIB2 lactam
- % change in body weight ([3]; DIO mice): lost weight to the same or greater extent of mice injected with the GLP-agonist control peptide
- total change in body weight ([3]; Example 28, DIO mice, 10 nmol/kg): greatest loss of body weight 7 days after injection
- potency in GTT compared with GLP-1 agonist control peptide [5]: greater than that of the GLP-1 agonist control peptide
- blood glucose levels in 1-hour and 24-hour GTT [5]: exhibited decreased levels of blood glucose

Compound: mt-274: pegylated, linear peptide lacking a lactam, Glu at position 3, PEG on C-terminal Cys at position 40 (Y[Aib]EGTFTSDYSIYLDKQAA[Aib]EFVNWLLAGGPSSGAPPPSC(PEG 40 kDa)-NH2)
- total change in blood glucose ([2]; Example 27, mice, subcutaneous, 10 or 35 nmol/kg/week, Day 7): most dramatic changes in blood glucose
- blood glucose levels [2, 7]: decreased
- % change in body weight ([3]; DIO mice): lost weight to the same or greater extent of mice injected with the GLP-agonist control peptide
- total change in body weight ([3]; Example 27, mice, 10 or 35 nmol/kg/week): most dramatic changes in body weight
- potency in GTT compared with GLP-1 agonist control peptide [5]: appeared to have the highest potency
- blood glucose levels in 1-hour and 24-hour GTT [5]: exhibited decreased levels of blood glucose

Compound: mt-309: acylated version of mt-274: C-terminal Lys with C14 fatty acyl group, 40 kDa PEG on Cys at position 24 (Y[Aib]EGTFTSDYSIYLDKQAA[Aib]EFVC(PEG 40 kDa)WLLAGGPSSGAPPPSK(C14 acyl)-NH2)
- decrease in blood glucose levels, effect of dosing frequency ([2]; Example 37, DIO mice, QD 5, every 2nd day 10 or QW 30 nmol/kg, Day 6): a QW injection of mt-309 achieved the same decrease in blood glucose levels as a QD injection
- total change in body weight (%), effect of dosing frequency ([3]; Example 37, DIO mice, subcutaneous QD 5 nmol/kg, every 2nd day 10 nmol/kg or QW 30 nmol/kg, Day 6): approximately the same as the total change in body weight for mice injected QD

Compound: mt-311: non-acylated version of mt-298; PEG on Cys at position 24, C-terminal Lys (Y[Aib]EGTFTSDYSIYLDKQAA[Aib]EFVC(PEG 40 kDa)WLLAGGPSSGAPPPSK-NH2)
- blood glucose levels [2, 7]: decreased
- blood glucose levels [2, 8]: decreased upon administration of the higher dose
- total food intake [4, 9]: decreased, as compared to the mice injected with a vehicle control

Compound: mt-331: same amino acid sequence as mt-311, differing in the pegylation linker; no acyl group on Lys at position 40 (Y[Aib]EGTFTSDYSIYLDKQAA[Aib]EFVC(PEG 40 kDa)WLLAGGPSSGAPPPSK-NH2; also: PEG linker structure not shown)
- blood glucose levels [2, 8]: decreased upon administration of the higher dose
- total food intake [4, 9]: decreased, as compared to the mice injected with a vehicle control
- total food intake ([4]; Example 35, 3 or 10 nmol/kg): decreased in comparison to mice administered the vehicle control

Compound: mt-353: same sequence as mt-331 with a C14 fatty acyl group on the Lys at position 40 (Y[Aib]EGTFTSDYSIYLDKQAA[Aib]EFVC(PEG 40 kDa)WLLAGGPSSGAPPPSK(C14 acyl)-NH2)
- blood glucose levels ([2]; Example 35, C57Bl/6 mice on diabetogenic diet): additionally caused blood glucose levels to decrease
- total food intake ([4]; Example 35, 3 or 10 nmol/kg): decreased in comparison to mice administered the vehicle control
